According to PMC8270334, “Design, Sustainable Synthesis and Biological Evaluation of a Novel Dual α2A/5-HT7 Receptor Antagonist with Antidepressant-Like Properties” (Molecules, 2021):

What was measured:
[1] = target: T1, human 5-HT1A receptor (Homo sapiens, UniProt P08908); assay: radioligand binding, [3H]-8-OH-DPAT displacement at 5-HT1AR in HEK293 cells; details: HEK-293 cells, ± SEM
T1 construct: expressed in transfected cells; host or cells: HEK293
T1 sequence (P08908 1-422): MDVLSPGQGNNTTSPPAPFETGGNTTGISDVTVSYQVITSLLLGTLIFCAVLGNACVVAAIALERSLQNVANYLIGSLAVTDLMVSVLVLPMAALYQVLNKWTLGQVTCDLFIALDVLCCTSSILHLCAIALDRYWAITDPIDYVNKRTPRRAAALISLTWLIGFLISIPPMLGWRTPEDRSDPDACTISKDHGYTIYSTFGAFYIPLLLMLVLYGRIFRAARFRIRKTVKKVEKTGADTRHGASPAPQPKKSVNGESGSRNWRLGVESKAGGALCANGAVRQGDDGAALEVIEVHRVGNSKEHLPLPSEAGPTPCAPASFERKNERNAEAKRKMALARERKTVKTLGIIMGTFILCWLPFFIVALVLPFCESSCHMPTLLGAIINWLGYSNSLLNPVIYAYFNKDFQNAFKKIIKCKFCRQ
Procedure: (§1) All experiments were performed using HEK293 cells stably expressing human 5-HT1A, 5-HT6, 5-HT7b, and D2L receptors or CHO-K1 cells with a plasmid containing the human 5-HT2A receptor coding sequence (PerkinElmer, Waltham, MA, USA), according to previously reported procedures. Cells were cultured in 150 cm^2 flasks and, after reaching a 90% confluence, were washed with PBS and the centrifugated (200 g) in PBS containing 0.1 mM EDTA and 1 mM dithiothreitol. Cell pellets were subsequently homogenized (in Ultra Turrax tissue homogenizer) and centrifugated twice (35,000× g for 15 min at 4 °C), with 15 min incubation at 37 °C between the centrifugations. All assays were incubated in dedicated buffers and in a total volume of 200 µL in 96-well microtitre plates for 1 h at 37 °C, except for 5-HT1AR and 5-HT2AR that was incubated for 1 h at room temperature. The process of equilibration is terminated by rapid filtration through Unifilter-96 (PerkinElmer) plates with a 96-well cell harvester and radioactivity retained on the filters was quantified on a Microbeta plate reader (PerkinElmer, USA). For displacement studies, the following assay samples containing the proper radioligand were used: 2.5 nM [^3H]-8-OH-DPAT (PerkinElmer, #NET929001MC) for 5-HT1AR; 1 nM [^3H]-ketanserin (PerkinElmer, #NET791250UC) for 5-HT2AR; 2 nM [^3H]-LSD (PerkinElmer, #NET638250UC) for 5-HT6R; and 0.8 nM [^3H]-5-CT (PerkinElmer, #NET1188U100UC) for 5-HT7R or 2.5 nM [^3H]-raclopride (PerkinElmer, #NET975001MC) for D2LR. Non-specific binding was determined using 10 μM 5-HT for 5-HT1AR and 5-HT7R, 20 μM mianserin for 5-HT2AR, 10 μM methiothepine for 5-HT6R, and 10 μM haloperidol for D2LR. […] Results were expressed as means of at least three separate experiments.

[2] = target: T2, 5-HT1AR (Homo sapiens, UniProt P08908); assay: functional profiling at 5-HT1AR, cAMP-based assays (Eurofins); type: cell-based; details: cAMP-based assay; for 5-HT1AR antagonist property: at 1 µM; for EC50: read-out: 5-HT1AR agonist activity EC50
T2 construct: Eurofins Scientific, France
T2 sequence (P08908 1-422): T1 sequence (P08908 1-422)

[3] = target: T3, α2B-adrenergic receptor (Homo sapiens, UniProt P18089); assay: intrinsic activity (antagonist) assay, α2B AequoScreen cell line, aequorin calcium mobilization; type: cell-based; details: AequoScreen cells, ± SEM, two independent experiments
T3 sequence (P18089 1-450): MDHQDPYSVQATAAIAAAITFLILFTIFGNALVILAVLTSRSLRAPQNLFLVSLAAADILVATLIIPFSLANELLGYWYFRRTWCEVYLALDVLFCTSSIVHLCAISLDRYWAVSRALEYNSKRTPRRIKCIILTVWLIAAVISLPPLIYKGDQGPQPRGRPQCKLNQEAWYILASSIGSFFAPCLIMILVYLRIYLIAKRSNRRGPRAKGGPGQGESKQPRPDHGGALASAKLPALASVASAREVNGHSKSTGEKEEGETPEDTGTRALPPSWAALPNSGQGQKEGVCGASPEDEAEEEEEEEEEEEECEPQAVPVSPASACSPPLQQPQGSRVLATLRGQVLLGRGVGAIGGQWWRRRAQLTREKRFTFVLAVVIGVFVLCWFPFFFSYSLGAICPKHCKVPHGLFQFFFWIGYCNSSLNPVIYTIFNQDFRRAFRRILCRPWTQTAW
Procedure: The intrinsic activity assays for the α2B-adrenergic receptor were assessed by luminescence detection of calcium mobilization using the recombinant expressed jellyfish photoprotein, aequorin. Measurements were performed with adrenergic α2B AequoScreen cell line (PekinElmer). The cell density in 96-well format measurements was 5000 cells per well. Cell harvesting, coelenterazine h (Invitrogen, cat. no. C 6780) loading and preparation were done according to instructions presented in the AequoScreen Starter Kit Manual (PerkinElmer). Compound concentration series (50 μL/well) were diluted in 0.1% BSA (Intergen) containing assay buffer (D-MEM/F-12, Invitrogen cat. no. 11039) and prepared in white ½ Area Plate–96 well microplates (PerkinElmer,). The cell suspension was dispensed on the ligands using the POLARstar optima reader injectors. For the antagonist assay, cells were injected (50 μL) into the assay plate with antagonists (50 μL) using the POLARstar optima reader. The antagonist dilution series with four replicates were prepared as instructed in the AequoScreen Starter Kit Manual at the concentrations from 10^–11 to 10^–6 M/L. The agonist used for […] was Oxymetazoline (Sigma, cat. no. O2378), which at a single concentration was injected (50 μL, final concentration EC80) on the preincubated (15–20 min) mixture of cells and antagonist, and the emitted light was recorded for 20 s.

[4] = target: T4, human D2L receptor (Homo sapiens, UniProt P14416); assay: radioligand binding, [3H]-raclopride displacement at D2LR in HEK293 cells; details: HEK-293 cells, ± SEM; read-out: Ki [nM] D2
T4 construct: expressed in transfected cells; host or cells: HEK293
T4 sequence (P14416 whole entry): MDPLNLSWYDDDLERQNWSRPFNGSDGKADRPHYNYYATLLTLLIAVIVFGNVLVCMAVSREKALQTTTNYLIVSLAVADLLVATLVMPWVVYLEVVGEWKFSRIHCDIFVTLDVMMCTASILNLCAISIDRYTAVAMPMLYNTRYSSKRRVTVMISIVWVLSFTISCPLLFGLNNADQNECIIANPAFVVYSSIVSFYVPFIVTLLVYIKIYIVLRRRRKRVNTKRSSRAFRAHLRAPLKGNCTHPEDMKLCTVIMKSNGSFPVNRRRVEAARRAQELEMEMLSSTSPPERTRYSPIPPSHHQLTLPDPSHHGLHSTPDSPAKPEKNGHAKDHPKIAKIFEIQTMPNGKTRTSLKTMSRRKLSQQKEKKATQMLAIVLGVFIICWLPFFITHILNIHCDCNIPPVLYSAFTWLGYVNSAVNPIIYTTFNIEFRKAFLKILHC
Procedure: as §1

[5] = target: α1-AR; assay: radioligand binding, displacement of [3H]prazosin from α1-adrenoreceptors; details: rat cerebral cortex, ± SEM
Procedure: The brains were homogenized in 20 volumes of ice-cold 50 mM Tris–HCl buffer (pH 7.6) and centrifuged at 20,000 × g for 20 min (0–4 °C). The cell pellet was resuspended in the Tris–HCl buffer and centrifuged again. Radioligand binding assays were performed in plates (MultiScreen/Millipore). […] The incubation was terminated by rapid filtration over glass fibre filters (Whatman GF/C) using a vacuum manifold (Millipore). The filters were then washed twice with the assay buffer and placed in scintillation vials with a liquid scintillation cocktail. Radioactivity was measured in a WALLAC 1409 DSA liquid scintillation counter. All assays were made in duplicate.

[6] = target: T5, human 5-HT2A receptor (Homo sapiens, UniProt P28223); assay: radioligand binding, [3H]-ketanserin displacement at 5-HT2AR in CHO-K1 cells; details: ± SEM; footnote HEK-293 cells, method CHO-K1 cells
T5 construct: host or cells: CHO-K1
T5 sequence (P28223 whole entry): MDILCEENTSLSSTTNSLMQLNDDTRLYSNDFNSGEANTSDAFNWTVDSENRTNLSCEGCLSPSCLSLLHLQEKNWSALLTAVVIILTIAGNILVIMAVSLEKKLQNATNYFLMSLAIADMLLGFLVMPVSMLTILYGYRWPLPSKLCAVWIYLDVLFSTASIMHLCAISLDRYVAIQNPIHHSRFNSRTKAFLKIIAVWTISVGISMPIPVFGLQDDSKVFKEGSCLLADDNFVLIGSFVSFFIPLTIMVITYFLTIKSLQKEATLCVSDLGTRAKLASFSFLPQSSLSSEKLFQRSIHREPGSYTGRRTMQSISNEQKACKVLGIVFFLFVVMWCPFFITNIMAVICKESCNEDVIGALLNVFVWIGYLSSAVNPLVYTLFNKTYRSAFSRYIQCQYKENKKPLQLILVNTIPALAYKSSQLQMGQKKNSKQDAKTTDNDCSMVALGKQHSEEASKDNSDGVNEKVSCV
Procedure: as §1

With `CC1(C)Cc2cccc(OCCN3CCC(NS(=O)(=O)c4ccc(F)cc4)CC3)c2O1` [Compound 6, 4-Fluoro-N-{1-[2-(2,2-dimethyl-2,3-dihydrobenzofuran-7-yloxy)ethyl]piperidin-4-yl} benzenesulfonamide] the Ki [1] was 221 ± 25 nM, the 5-HT1AR antagonist property [2] was “no antagonist property” and the EC50 [2] was over 4000 nM. The Kb [3] was 103 ± 25 nM, the Ki [4] was 327 ± 29 nM and the Ki [5] was 761 ± 86 nM. For the same compound, the Ki [6] was 538 ± 38 nM.

For `CC1(C)Cc2cccc(OCCN3CCC(NS(=O)(=O)c4cc(Cl)ccc4F)CC3)c2O1` [Compound 8, 5-Chloro-2-fluoro-N-{1-[2-(2,2-dimethyl-2,3-dihydrobenzofuran-7-yloxy)ethyl]piperidin-4-yl}benzenesulfonamide], the Ki [1] was 260 ± 29 nM, the 5-HT1AR antagonist property [2] was “no antagonist property” and the EC50 [2] was over 4000 nM. It also gave a Kb [3] of 142 ± 31 nM, a Ki [4] of 388 ± 37 nM and a Ki [5] of 1260 ± 101 nM. It also gave a Ki [6] of 1420 ± 98 nM.

For `CC1(C)Cc2cccc(OCCN3CCC(NS(=O)(=O)c4cncc5ccccc45)CC3)c2O1` [Compound 13, 4-Isoquinoline-N-{1-[2-(2,2-dimethyl-2,3-dihydrobenzofuran-7-yloxy)ethyl]piperidin-4-yl}sulfonamide], the Ki [1] was 260 ± 18 nM, the 5-HT1AR antagonist property [2] was “no antagonist property” and the EC50 [2] was over 4000 nM. It also gave a Kb [3] of 27 ± 13 nM, a Ki [4] of 326 ± 25 nM and a Ki [5] of 429 ± 66 nM. It also gave a Ki [6] of 1420 ± 105 nM.
